Experimental data as given in patent publication US7264932B2, “Nuclease inhibitor cocktail” (Applera Corporation, priority 1999, dated 2007).

What was measured:
bovine RNase A [1] = molecular target: T1, bovine RNase A (Bos taurus, UniProt P61823); experiment: Intactness of total RNA (RNA LabChip), bovine RNase A; format: biochemical; conditions: 100 uM BpB, 8.3 pg/ul bovine RNase A
T1 sequence (P61823 27-150): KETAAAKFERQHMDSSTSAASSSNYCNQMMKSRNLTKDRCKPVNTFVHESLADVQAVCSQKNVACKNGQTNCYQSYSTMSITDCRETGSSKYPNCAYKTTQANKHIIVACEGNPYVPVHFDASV
Description: (§1) A total of 100 pg/ul e. […].
(§2) Mouse pancreatic tissue (5 mg) was disrupted in 50 ul of 24 mM Hepes, pH 7.2, 50 mM NaCl, 1 mM MgCl2. The diluted lysate (1:20,000) was pre-incubated with 50 uM Benzopurpurin B (BpB) for 30 sec and then added to 100 ng/ul mouse liver total RNA (Ambion) and incubated at 23 C for an additional 4 min. Samples were quenched in a guanidinium lysis buffer, and the RNA purified via MEGAclear™ MAG-96 and eluted with 20 ul nuclease-free water. […] These experiments were conducted in the same fashion except that 100 uM BpB was employed. The sample (1 ul) was analyzed by 2100 BioAnalyzer software (Agilent) after separation on an RNA LabChip.
(§3) Pancreatic tissue (5 mg) was dounced in 50 ul of 24 mM Hepes, pH 7.2, 50 mM NaCl, 1 mM MgCl2. The lysate was diluted (1:20,000) and then pre-incubated with 200 uM of 467929. […] All samples were pre-incubated for 30 sec before being added to 100 ng/ul mouse liver total RNA (Ambion) and incubated at 23C for an additional 4 min. The RNA was then immediately purified via MEGAclear™ MAG-96 and eluted with 20 ul nuclease-free water. The recovered RNA (1 ul) was analyzed by 2100 BioAnalyzer software after separation on an RNA LabChip.

diluted pancreas lysate = experiment: Intactness of total RNA (RNA LabChip), diluted pancreas lysate; format: biochemical, mouse; conditions: pancreas lysate 1:20,000, 23 C 4 min
Description: as §1
Pancreatic lysate (0.1 mg/ml) was diluted 1:20,000 in 24 mM Hepes, pH 7.2, 50 mM NaCl, 1 mM MgCl2 and pre-incubated with either 1% SDS or 6.25 mM OVA for 30 s prior to the addition of 2 ug mouse liver total RNA. Reactions were incubated at 25 C for an additional 4 min, quenched, and analyzed on an RNA LabChip.
as §2
Mouse pancreatic tissue (5 mg) was dounced in 50 ul of 24 mM Hepes, pH 7.2, 50 mM NaCl, 1 mM MgCl2. A diluted lysate (1:20,000) was pre-incubated with 100 uM BpB or the analog Benzopurpurin 4B (Bp4B) for 30 sec and then added to 100 ng/ul mouse liver total RNA (Ambion) and incubated at 23 C for an additional 4 min. Samples were quenched in a guanidinium lysis buffer, and the RNA purified via MEGAclear™ MAG-96 and eluted with 20 ul nuclease-free water. The sample (1 ul) was analyzed by 2100 BioAnalyzer software (Agilent) after separation on an RNA LabChip.
as §3

[2] = molecular target: T2, human pancreatic RNase (HPR) (Homo sapiens, UniProt P07998); experiment: Intactness of total RNA (RNA LabChip), HPR; format: biochemical; conditions: 100 uM BpB, 1 ng/ul HPR
T2 sequence (P07998 29-156): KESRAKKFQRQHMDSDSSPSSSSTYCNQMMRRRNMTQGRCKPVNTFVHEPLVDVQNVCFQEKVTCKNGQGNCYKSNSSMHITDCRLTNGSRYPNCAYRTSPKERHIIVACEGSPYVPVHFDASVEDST

[3] = tested on: one-step RT-PCR with MMLV-RT and SuperTaq, target hGAPDH; experiment: One-step qRT-PCR tolerance, hGAPDH; format: biochemical
Description: To evaluate the compatibility of Benzopurpurin B and 4B in RT-PCR applications, 100 nM, 1 uM, 10 uM, and 25 uM were tested in Ambion's MessageSensor RT-PCR Kit using the supplier's instructions and using primers/probe designed to amplify a 226 nt amplicon from the human GAPDH mRNA. Reaction conditions: 20-ul one-step RT-PCR with MMLV-RT (0.4 U/ul final) and SuperTaq (0.04 U/ul final). Cycling conditions: Stage 1. 42 C for 15 minutes, Stage 2. 95 C for 5 min, Stage 3. 95 C-15 sec and 60 C-60 sec, where Stage 3 is repeated 40 times. […] The compound was tolerated at 10 uM or lower with no significant loss of sensitivity (Table 16).

E. coli RNase I = E. coli RNase I (Escherichia coli, UniProt P21338); experiment: Intactness of total RNA (RNA LabChip), E. coli RNase I; format: biochemical; conditions: 100 uM BpB, 7 ng/ul E. coli RNase I
E. coli RNase I, sequence (P21338 24-268): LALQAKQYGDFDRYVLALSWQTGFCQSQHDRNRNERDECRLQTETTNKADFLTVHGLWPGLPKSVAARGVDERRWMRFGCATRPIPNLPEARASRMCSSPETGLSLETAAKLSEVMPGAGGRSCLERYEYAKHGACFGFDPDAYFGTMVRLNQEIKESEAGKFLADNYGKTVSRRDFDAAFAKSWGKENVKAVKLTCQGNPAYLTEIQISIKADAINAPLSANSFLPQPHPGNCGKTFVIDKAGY

DNase I = DNase I (Bos taurus, UniProt P00639); experiment: Lambda DNA digestion assay with DNase I; format: biochemical; conditions: 0.02 U DNase I, 1 ug lambda DNA, 10 min at 37C
DNase I, sequence (P00639 23-282): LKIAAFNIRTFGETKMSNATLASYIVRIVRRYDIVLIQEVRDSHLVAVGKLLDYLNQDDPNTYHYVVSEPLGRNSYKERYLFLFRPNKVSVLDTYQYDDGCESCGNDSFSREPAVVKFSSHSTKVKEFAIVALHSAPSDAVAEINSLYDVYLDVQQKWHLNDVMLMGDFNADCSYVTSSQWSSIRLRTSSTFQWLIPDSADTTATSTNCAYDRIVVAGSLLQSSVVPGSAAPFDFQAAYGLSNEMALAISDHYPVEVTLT
Source text: One application for small molecule RNase inhibitors is as an RNA control agent during enzymatic manipulation of solutions containing RNA. These reactions include in vitro transcription, in vitro translation, DNase digestion, and reverse transcription, among others. […] […] […] All reactions were quenched with EDTA and the cleavage products resolved on a 1% agarose gel.
As a result, compounds such as #467929, 140553, and 180582 may have utility in curbing the activity of residual RNases that may carry over from RNA isolation methods during DNase treatments of the RNA.

[4] = molecular target: eosinophil-derived neurotoxin (EDN) (Homo sapiens, UniProt P10153); experiment: Intactness of total RNA (RNA LabChip), EDN; format: biochemical; conditions: 100 uM BpB, 1 ng/ul EDN
eosinophil-derived neurotoxin (EDN), sequence (P10153 28-161): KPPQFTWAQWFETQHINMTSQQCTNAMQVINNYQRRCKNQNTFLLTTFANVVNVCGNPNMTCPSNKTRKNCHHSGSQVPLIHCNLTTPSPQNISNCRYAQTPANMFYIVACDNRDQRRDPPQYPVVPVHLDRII

nuclease = nuclease (Homo sapiens, UniProt P03950); experiment: Ki of Lead 1 and Lead 2 analogs (Tables 1 and 2); format: biochemical; conditions: Table 1, Lead 1 Analog List
nuclease, sequence (P03950 25-147): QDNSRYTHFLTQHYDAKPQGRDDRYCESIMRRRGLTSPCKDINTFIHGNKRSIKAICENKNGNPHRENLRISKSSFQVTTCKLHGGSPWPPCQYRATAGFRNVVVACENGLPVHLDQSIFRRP

MMLV RT RNase H = MMLV RT RNase H (Moloney murine leukemia virus, UniProt P03355); experiment: RT-based RNase H cleavage of RNA:DNA hybrid; format: biochemical
Description: As described above, Chembridge compound #467929 offered protection from several RNA-specific endonucleolytic activities. […] A 20-mer DNA oligonucleotide was asymmetrically annealed to a 1500 base synthetic RNA to create an RNA:DNA duplex substrate for RNase H. Reactions were initiated with 10 U of MMLV RT in 1× RT buffer (50 mM TrisCl pH 8.3, 75 mM KC, 3 mM MgCl2, 5 mM DTT) containing 500 ng/ul RNA:DNA hybrid. All reactions contained 5% DMSO either with or without the small molecule RNase inhibitor. Samples were incubated for 5 min at 37 C, and quenched with EDTA. Products were resolved on an RNA LabChip. Cleavage products were observed as two equally represented RNA species of 1000 and 500 bases. Product length and yield were determined using the 2100 BioAnalyzer software (Agilent). Table 18 details the level of inhibition of MMLV RT RNase H that is observed as a function of the concentration of compounds 467929 and 227726.

bovine RNase A [5] = molecular target: T1, bovine RNase A; experiment: Ki determination by Dixon analysis (RNaseAlert); format: biochemical; conditions: 74 pM RNase A, 40 nM RNaseAlert substrate, pH 7.0
Source text: To measure the inhibition constant of compound #467929 against bovine RNase A, Dixon analysis was used to determine the relationship between RNase activity and inhibitor concentration. The […] fluorescence assay (Ambion) was used to quantify RNase activity.

SMILES	inhibition of RNase (RNA intactness) (bovine RNase A [1])	protection of total RNA from degradation (diluted pancreas lysate; 50 uM BpB)	protection of total RNA from degradation (diluted pancreas lysate; 100 uM inhibitor)	inhibition of RNase (RNA intactness) [2]	Ct at 50 ng Input RNA ([3]; RT w RIP, inhibitor 1 uM)	Ct at 50 ng Input RNA ([3]; RT w RIP, inhibitor 10 uM)	Ct at 50 ng Input RNA ([3]; RT w RIP, inhibitor 25 uM)	Ct at 50 ng Input RNA ([3]; RT w RIP, inhibitor 100 nm)	Ct at 50 ng Input RNA ([3]; RT without RIP, inhibitor 1 uM)	Ct at 50 ng Input RNA ([3]; RT without RIP, inhibitor 10 uM)	Ct at 50 ng Input RNA ([3]; RT without RIP, inhibitor 25 uM)	Ct at 50 ng Input RNA ([3]; RT without RIP, inhibitor 100 nm)	inhibition of RNase (RNA intactness) (E. coli RNase I)	concentration tolerated with little or no effect on enzymatic DNA cleavage (DNase I)	inhibition of RNase (RNA intactness) [4]	Ki (nuclease)	% Cleavage (MMLV RT RNase H; inhibitor 8 uM, 36 without inhibitor)	% Cleavage (MMLV RT RNase H; inhibitor 40 uM)	Ki (bovine RNase A [5])
Cc1cc(-c2ccc(/N=N/c3c(N)ccc4cc(S(=O)(=O)O)ccc34)c(C)c2)ccc1/N=N/c1c(N)ccc2cc(S(=O)(=O)O)ccc12 [Benzopurpurin B, 3,3′-di-methylbiphenyl-4,4′-bis(2-amino-naphthylazo-6-sulfo-nate)]	effective inhibitor	significant protection	significant protection	effective inhibitor	17.66	19.27	undet	17.27	17.35	17.96	undet	17.39	effective inhibitor	up to 10 uM	effective inhibitor	5 µM	–	–	–
O=C(Nc1ccc(Cc2ccc(NC(=O)c3cccc([N+](=O)[O-])c3)c(C(=O)O)c2)cc1C(=O)O)c1cccc([N+](=O)[O-])c1 [compound 467929, 3,3′-dicarboxy-4,4′-bis(3-ni-trophenylamido)di-phenylmethane]	–	–	–	–	–	–	–	–	–	–	–	–	–	–	–	–	42%	8%	~12 µM
